Test results from the NIST ThermoML archive (doi:10.1021/acs.jced.5b00197).

What was measured:
[1] = xn = mol fraction of the nth substance listed; settings: 96.64 kPa, Liquid, mechanical oscillator
[2] = refractive index (Na D-line) (dimensionless); xn = mol fraction of the nth substance listed; settings: 94.64 kPa, Liquid, Standard Abbe refractometry

CC(=O)O [acetic acid] + O
Settings	mass density, 293.15 K [kg/m3]	mass density, 298.15 K [kg/m3]	mass density, 303.15 K [kg/m3]	refractive index, 293.15 K	refractive index, 298.15 K	refractive index, 303.15 K
[1], x1 = 0.0322	1013.1	1010.07	1007.37	–	–	–
[1], x1 = 0.0697	1029.11	1024.31	1021.16	–	–	–
[1], x1 = 0.114	1040.03	1036.43	1032.93	–	–	–
[1], x1 = 0.167	1049.79	1045.44	1039.59	–	–	–
[1], x1 = 0.231	1057.69	1053.12	1048.56	–	–	–
[1], x1 = 0.31	1064.29	1059.45	1054.48	–	–	–
[1], x1 = 0.412	1068.57	1063.31	1058.16	–	–	–
[1], x1 = 0.545	1068.93	1063.47	1058.01	–	–	–
[1], x1 = 0.629	1067.42	1061.15	1057.17	–	–	–
[1], x1 = 0.729	1062.82	1058.08	1053.26	–	–	–
[1], x1 = 0.85	1059.62	1053.73	1047.95	–	–	–
[1], x1 = 1	1049.63	1043.57	1037.64	–	–	–
[2], x1 = 0.0322	–	–	–	1.34079	1.34007	1.33927
[2], x1 = 0.0697	–	–	–	1.34792	1.34695	1.34593
[2], x1 = 0.114	–	–	–	1.35489	1.35372	1.3525
[2], x1 = 0.167	–	–	–	1.3609	1.35957	1.35822
[2], x1 = 0.231	–	–	–	1.36583	1.36436	1.36288
[2], x1 = 0.31	–	–	–	1.37062	1.369	1.36736
[2], x1 = 0.412	–	–	–	1.37406	1.37233	1.37058
[2], x1 = 0.545	–	–	–	1.37703	1.37519	1.37331
[2], x1 = 0.629	–	–	–	1.37724	1.37545	1.37349
[2], x1 = 0.729	–	–	–	1.37721	1.3753	1.37335
[2], x1 = 0.85	–	–	–	1.37559	1.37359	1.3716
[2], x1 = 1	–	–	–	1.37224	1.37012	1.36809

CC(=O)O [acetic acid] + Cc1ccccc1
Settings	mass density, 293.15 K [kg/m3]	mass density, 298.15 K [kg/m3]	mass density, 303.15 K [kg/m3]	refractive index, 293.15 K	refractive index, 298.15 K	refractive index, 303.15 K
[1], x1 = 0.146	878.94	873.65	868.47	–	–	–
[1], x1 = 0.277	894.11	888.81	883.38	–	–	–
[1], x1 = 0.397	907.9	902.58	897.1	–	–	–
[1], x1 = 0.506	924.08	918.49	912.96	–	–	–
[1], x1 = 0.605	940.43	934.75	929.15	–	–	–
[1], x1 = 0.697	960	954.12	948.31	–	–	–
[1], x1 = 0.782	978.4	972.48	966.6	–	–	–
[1], x1 = 0.859	1000.2	994.34	988.34	–	–	–
[1], x1 = 0.897	1017.74	1011.75	1005.81	–	–	–
[1], x1 = 0.932	1027.84	1021.82	1015.9	–	–	–
[1], x1 = 0.967	1038.11	1032.17	1026.28	–	–	–
[1], x1 = 1	1049.63	1043.57	1037.64	–	–	–
[2], x1 = 0.146	–	–	–	1.48448	1.48174	1.47906
[2], x1 = 0.277	–	–	–	1.47082	1.4681	1.46535
[2], x1 = 0.397	–	–	–	1.45878	1.45618	1.45352
[2], x1 = 0.506	–	–	–	1.44593	1.44332	1.44065
[2], x1 = 0.605	–	–	–	1.43372	1.43116	1.42842
[2], x1 = 0.697	–	–	–	1.4212	1.41872	1.41617
[2], x1 = 0.782	–	–	–	1.40891	1.4065	1.40452
[2], x1 = 0.859	–	–	–	1.39681	1.39453	1.39228
[2], x1 = 0.897	–	–	–	1.38731	1.38466	1.38303
[2], x1 = 0.932	–	–	–	1.38235	1.38029	1.3782
[2], x1 = 0.967	–	–	–	1.37721	1.3752	1.37315
[2], x1 = 1	–	–	–	1.37224	1.37012	1.36809
